Publication PMC8230474, “Synthesis of Novel Acyl Derivatives of 3-(4,5,6,7-Tetrabromo-1H-benzimidazol-1-yl)propan-1-ols—Intracellular TBBi-Based CK2 Inhibitors with Proapoptotic Properties” (International Journal of Molecular Sciences, 2021)
Read-outs that look alike come from different tables or passages of the source.

What was measured:
MCF-7 cells [1] = experiment: Cell cycle progression by flow cytometry, MCF-7; type: cell-based, human; conditions: MCF-7, 72 h, compound at its EC50
MDA-MB-231 cells [2] = experiment: MTT viability assay, MDA-MB-231; type: cell-based; conditions: Homo sapiens, read-out: EC50 ± SD MDA-MB-231
Method: (§1) To test the anti-cancer effect of the TBBi derivatives, we treated the MCF-7 and MDA-MB-231 cells with the newly synthesized esters and previously reported compounds [34, 57] at the concentration range of 3.125 to 200 µM for 24 h, 48 h and 72 h. Additionally, the range of concentrations was extended by additional lower concentrations in MCF-7 for compound 4 with the minimum concentration of 0.195 µM. […] The EC50 values, describing the half maximal effective concentration of each tested compound, were calculated and are summarized in Table 2. […] We observed that the EC50 values increase in both cell lines with the elongation of fatty acids chain length in the tested compounds, thus strongly correlating with the decrease of their solubility in biological media as characterized by logS parameter (Table 2). The second reason for the decreased biological activity of the longer-chain aliphatic esters might be attributed to their greater resistance toward intracellular hydrolysis, which directly influences the slower release of the active form of the corresponding CK2 inhibitors. […] However, none of the tested compounds, except for compound 5, decreased the viability of both cell lines in a time-dependent manner (Figure 4).
(§2) MCF-7 and MDA-MB-231 were cultured in high-glucose Dulbecco’s modified Eagle medium (DMEM, Lonza, Basel, Switzerland) supplemented with 10% fetal bovine serum (FBS, EuroClone, Siziano, Italy)), 2 mM L-glutamine, and antibiotics (100 U/mL penicillin, 100 µg/mL streptomycin) (Sigma-Aldrich Chemical Company (St. Louis, MO, USA). Cells were grown in 75-cm^2 cell culture flasks (Sarstedt, Nümbrecht, Germany) in a humidified atmosphere of CO2/air (5%/95%) at 37 °C. All the experiments were performed in exponentially growing cultures. Stock solutions of the test compounds were prepared in DMSO and stored in −80 °C for a maximum of one month. For the cytotoxicity studies, stock solutions of the tested compounds were diluted 200-fold with the proper culture medium to obtain the final concentrations.
(§3) After incubation with the tested compounds, an MTT test was performed as described previously. Optical densities were measured at 570 nm using BioTek microplate reader (Winooski, VT, USA). All measurements were carried out in a minimum of three biological replicates.

[3] = target: human CK2 catalytic subunit (CK2α) (Homo sapiens, UniProt P68400); experiment: Radiometric (P81 filter isotopic) kinase assay, CK2 catalytic subunit; type: biochemical; conditions: read-out: Residual Activity of the Enzyme CK2α
MCF-7 cells [4] = experiment: Annexin V-FITC/PI flow cytometry, MCF-7; type: cell-based, human; conditions: MCF-7, 72 h treatment, compound at its EC50
Method: Additionally, assaying annexin V-binding to phosphatidylserine by means of flow cytometry confirmed that derivatives 3c and 6a–c induced apoptosis in both cell lines (Figure 9, Figure S3).
MCF-7 cells were seeded in six-well plates at 1.5 × 10^5 cells/well. […] Then, the plates were incubated for 24 h or 72 h. After exposure to the examined compounds, the floating cells were collected, and monolayer cell culture was trypsinized. The cells were centrifugated at 200× g at 4 °C for 5 min, washed twice in cold phosphate-buffered saline (PBS), and subsequently suspended in binding buffer at 1 × 10^6 cells/mL. Subsequently, 100-μL aliquots of the cell suspension were labeled according to the kit manufacturer’s instructions. Briefly, annexin V-fluorescein isothiocyanate and propidium iodide (BD Biosciences, Pharmingen, San Diego, CA, USA) were added to the cell suspension, and the mixture was vortexed and then incubated for 15 min at RT in the dark. A cold binding buffer (900 μL) was then added and the cells were vortexed again and kept on ice. Flow cytometric measurements were performed within 1 h after labeling. Viable, necrotic, early, and late apoptotic cells were detected by flow cytometry using CyFlow Cube 8 (Sysmex, Norderstedt, Germany) flow cytometer.

[5] = target: CK2 holoenzyme (CK2 α2β2) (Homo sapiens, UniProt P68400); experiment: Radiometric (P81 filter isotopic) kinase assay, CK2 holoenzyme; type: biochemical; conditions: read-out: Residual Activity of the Enzyme CK2 α2β2
MCF-7 cells [6] = experiment: MTT viability assay, MCF-7; type: cell-based; conditions: Homo sapiens, read-out: EC50 ± SD MCF-7
Method: as §1, §2, §3

PIM1 = PIM1 (Homo sapiens, UniProt P11309); experiment: Radiometric (P81 filter isotopic) kinase assay, PIM1; type: biochemical; conditions: for Ki: calculated from IC50 by Cheng and Prusoff equation; for remaining activity at 5 µM / remaining activity at 10 µM: read-out: Residual Activity of the Enzyme PIM1
[7] = tested on: protein kinase CK2 in MCF-7 cells; experiment: Intracellular inhibition of CK2, Western blot of p-Ser529 p65 and p-Ser129 Akt1, MCF-7; type: cell-based, human
Description: (§4) We observed an inhibition of CK2 in both cell lines; however, the lower efficiency of CK2 inhibition was detected in MCF-7 considering the extent of Akt1 phosphorylation. The relative level of the phosphorylation of the tested proteins in MDA-MB-231 cells was in the range of 0.32 to 0.80 for p-Ser529 p65 and 0.41 to 0.73 for p-Ser129 Akt1, whereas in MCF-7 cells it was in the range of 0.33 to 0.78 for p-Ser529 p65 and 0.82 to 1.23 for p-Ser129 Akt1, respectively. The lowest phosphorylation levels of the tested proteins were detected in MDA-MB-231 cells for compound 6b with the relative level of 0.41 for Ser129 Akt1 as well as for compound 6c with the relative level of 0.32 for p-Ser529 p65. Among the tested proteins, the lowest extent of phosphorylation in MCF-7 cells was detected for 6b with the relative level of 0.33 for p-Ser529 p65, and for 6a with the relative level of 0.82 for Ser129 Akt1.
Considering an inefficient inhibition of CK2 in MCF-7, we evaluated an inhibition of CK2 in this cell line after 72 h. […] The relative levels were in the range of 0.17 to 0.8 for p-Ser529 p65 and 0.19 to 0.79 for p-Ser129 Akt1.
The MCF-7 cells growing exponentially were seeded at 4.8 × 10^5 cells in 6-cm-diameter plates. Subsequently, compounds were added in a final concentration of 0.5% DMSO. After incubation, floating cells were collected and cell monolayer was washed three times in ice-cold PBS and the cells were scraped, combined with floating cells and lysed in RIPA buffer consisting of 50 mM Tris-HCl (pH 7.4), 1% NP-40, 0.5% sodium deoxycholate, 0.1% SDS, 150 mM NaCl, 2 mM EDTA, 50 mM NaF, 0.2 mM sodium orthovanadate, and protease inhibitors cocktail. Subsequently, cells were sonicated (three times for 15 s), centrifuged at 20,000× g for 15 min at 4 °C, and the supernatants were collected and stored at −80 °C. The protein concentration was determined using Bradford assay. Then, supernatants were incubated with the Laemmli buffer for 5 min at 98 °C. Equal amounts of total protein (10 to 20 μg) were analyzed by SDS-PAGE, and subsequently, Western blotting was performed using primary antibodies in blocking buffer containing either 3% BSA (bovine serum albumin) or 3% milk in TBS-T (Tris-buffered saline (10 mM Tris-HCl (pH 8), 150 mM NaCl) containing 0.1% Tween 20 or 0.2% Triton X-100) for 1 h. After overnight incubation at 4 °C with the primary antibodies, the membranes were washed with TBS-T and probed with the respective secondary antibodies. The ECL substrate was used for detection and immunoblots were scanned using G Box Chemi (Syngene, Cambridge, UK) with GeneSys software (Syngene, Cambridge, UK) or were developed with the use of X-rays films. UV-irradiated Jurkat cells were used as a positive control in Western blot analysis of c-PARP1. After 2 h, one-minute UV-irradiated Jurkat leukemic T-cell line was lysed and subjected to analysis.
For densitometry, immunoblots were quantified using the Fiji distribution of the ImageJ 1.52a software (National Institutes of Health, Bethesda, MD, USA, and the University of Wisconsin, Madison, WI, USA). Phosphorylated protein densities were normalized to GAPDH densities, assuming 1 for untreated cells and then they were converted to a percent of the appropriate control.

MDA-MB-231 cells [8] = experiment: Cleaved PARP1 Western blot, MDA-MB-231; type: cell-based, human; conditions: MDA-MB-231, 24-h treatment, compound at its EC50, untreated cells = one relative unit
[9] = tested on: protein kinase CK2 in MDA-MB-231 cells; experiment: Intracellular inhibition of CK2, Western blot of p-Ser529 p65 and p-Ser129 Akt1, MDA-MB-231; type: cell-based, human; conditions: MDA-MB-231, 24 h treatment, compound at its 72-h EC50, relative to untreated control
Description: as §4
The MCF-7 cells growing exponentially were seeded at 4.8 × 10^5 cells in 6-cm-diameter plates. Subsequently, compounds were added in a final concentration of 0.5% DMSO. […] The protein concentration was determined using Bradford assay. […]
For densitometry, immunoblots were quantified using the Fiji distribution of the ImageJ 1.52a software (National Institutes of Health, Bethesda, MD, USA, and the University of Wisconsin, Madison, WI, USA). […]

[10] = set-up: method as in PMID 8876860, PMID 9760686; conditions: higher than the parent anti-herpesvirus agent; cited from earlier work
[11] = MCF-7, 72 h treatment, compound at its EC50, relative to untreated control

Sequence of PIM1 (P11309 whole entry, species assumed): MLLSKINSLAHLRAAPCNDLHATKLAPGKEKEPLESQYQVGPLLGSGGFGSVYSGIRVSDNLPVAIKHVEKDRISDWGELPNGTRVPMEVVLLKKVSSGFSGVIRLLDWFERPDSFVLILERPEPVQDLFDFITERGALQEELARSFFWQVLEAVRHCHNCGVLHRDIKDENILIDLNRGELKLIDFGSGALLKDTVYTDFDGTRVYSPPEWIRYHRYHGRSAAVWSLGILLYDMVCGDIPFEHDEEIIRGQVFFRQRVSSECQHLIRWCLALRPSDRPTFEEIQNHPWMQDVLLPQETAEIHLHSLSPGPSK
Sequence of human CK2 catalytic subunit (CK2α) (P68400 whole entry): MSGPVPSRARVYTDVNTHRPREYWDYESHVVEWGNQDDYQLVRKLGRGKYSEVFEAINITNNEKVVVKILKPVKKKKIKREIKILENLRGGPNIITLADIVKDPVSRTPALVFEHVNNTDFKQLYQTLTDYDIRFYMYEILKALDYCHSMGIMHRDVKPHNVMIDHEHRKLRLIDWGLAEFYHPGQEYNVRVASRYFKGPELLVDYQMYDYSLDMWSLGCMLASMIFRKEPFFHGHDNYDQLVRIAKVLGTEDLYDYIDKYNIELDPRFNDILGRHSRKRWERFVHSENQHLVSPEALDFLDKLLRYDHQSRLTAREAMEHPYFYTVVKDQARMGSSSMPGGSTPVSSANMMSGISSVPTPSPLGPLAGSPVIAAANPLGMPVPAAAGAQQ
Sequence of CK2 holoenzyme (CK2 α2β2) (P68400 whole entry): as above
Sequence of CK2 holoenzyme (CK2 α2β2) (P67870 whole entry partner): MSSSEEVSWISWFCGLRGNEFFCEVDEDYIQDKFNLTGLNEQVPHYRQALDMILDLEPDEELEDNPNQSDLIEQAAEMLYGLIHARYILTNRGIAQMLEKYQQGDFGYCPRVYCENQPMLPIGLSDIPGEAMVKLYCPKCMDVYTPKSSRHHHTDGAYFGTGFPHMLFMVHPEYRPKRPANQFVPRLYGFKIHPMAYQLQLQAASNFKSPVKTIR

EC50 (MDA-MB-231 cells [2]; 24 h)	EC50 (MDA-MB-231 cells [2]; 48 h)	EC50 (MDA-MB-231 cells [2]; 72 h)	EC50 (MCF-7 cells [6]; MCF7, 24 h)	EC50 (MCF-7 cells [6]; MCF7, 48 h)	EC50 (MCF-7 cells [6]; MCF7, 72 h)	remaining activity at 5 µM ([3]; 5 µM compound)	remaining activity at 10 µM ([3]; 10 µM compound)	melting point	remaining activity at 5 µM ([5]; 5 µM compound)	remaining activity at 10 µM ([5]; 10 µM compound)	remaining activity at 5 µM (PIM1; 5 µM compound)	remaining activity at 10 µM (PIM1; 10 µM compound)	SMILES	cells in G1 (MCF-7 cells [1])	cells in G2M (MCF-7 cells [1])	cells in S (MCF-7 cells [1])	Ki (PIM1)	also measured
52.2 ± 11.7 µM	20.5 ± 1.97 µM	16.9 ± 4.07 µM	20.2 ± 1.74 µM	18.1 ± 0.52 µM	16.5 ± 1.13 µM	81.5 ± 8%	68.4 ± 9.8%	81 to 82 °C	75.6 ± 5.9%	49.6 ± 0.8%	38.8 ± 3.1%	19 ± 0.1%	CCCC(=O)OCCCn1c(C)nc2c(Br)c(Br)c(Br)c(Br)c21 [Compound 6a, 3-(4,5,6,7-Tetrabromo-2-methyl-1H-benzimidazol-1-yl)propyl butanoate]	56.3%	18.5%	25.2%	1.94 ± 0.16 µM	relative level of p-Ser129 Akt1 ([7]; MCF-7, 24 h treatment, compound at its 72-h EC50, relative to untreated control): 0.82; relative level of p-Ser129 Akt1 [7, 11]: 0.30; relative level of p-Ser529 p65 [7, 11]: 0.19
61.3 ± 2.23 µM	29.8 ± 9.85 µM	21.3 ± 2.24 µM	25.6 ± 12.3 µM	20.5 ± 2.92 µM	14.8 ± 2.14 µM	89.9 ± 5.2%	84.3 ± 10.4%	61 to 65 °C	90.2 ± 4.7%	80.8 ± 1.9%	95.2 ± 9.4%	79.8 ± 8.6%	CCCCCCCC(=O)OCCCn1c(C)nc2c(Br)c(Br)c(Br)c(Br)c21 [Compound 6c, 3-(4,5,6,7-Tetrabromo-2-methyl-1H-benzimidazol-1-yl)propyl octanoate]	58.9%	13.4%	27.7%	–	relative level of c-PARP1 (MDA-MB-231 cells [8]): 7.14; relative level of p-Ser529 p65 [9]: 0.32
–	–	–	–	–	–	–	–	–	–	–	–	–	CC(=O)OCC(CCn1cnc2cnc(N)nc21)COC(C)=O [famciclovir]	–	–	–	–	bioavailability relative to parent penciclovir [10]: 15 fold

SMILES	EC50 (MDA-MB-231 cells [2]; 24 h)	EC50 (MDA-MB-231 cells [2]; 48 h)	EC50 (MDA-MB-231 cells [2]; 72 h)	EC50 (MCF-7 cells [6]; MCF7, 24 h)	EC50 (MCF-7 cells [6]; MCF7, 48 h)	EC50 (MCF-7 cells [6]; MCF7, 72 h)	remaining activity at 5 µM ([3]; 5 µM compound)	remaining activity at 10 µM ([3]; 10 µM compound)	melting point	remaining activity at 5 µM ([5]; 5 µM compound)	remaining activity at 10 µM ([5]; 10 µM compound)	remaining activity at 5 µM (PIM1; 5 µM compound)	remaining activity at 10 µM (PIM1; 10 µM compound)	cells in G1 (MCF-7 cells [1])	cells in G2M (MCF-7 cells [1])	cells in S (MCF-7 cells [1])	Ki (PIM1)	also measured
Brc1c(Br)c(Br)c2[nH]cnc2c1Br [Compound 1, 4,5,6,7-tetrabromo-1H-benzimidazole, reference compound]	51.9 ± 14.4 µM	25.1 ± 2.04 µM	24.9 ± 0.25 µM	20.8 ± 1.49 µM	18.8 ± 1.6 µM	16.9 ± 1.36 µM	–	–	–	–	–	–	–	57.7%	17.2%	25.1%	0.27 µM	remaining activity at 5 µM [3]: 19.3 ± 0.2%; remaining activity at 10 µM [3]: 12.4 ± 0.1%; necrotic cells (of total cells) (MCF-7 cells [4]): 25%; remaining activity at 5 µM [5]: 9.6 ± 2.6%; remaining activity at 10 µM [5]: 5 ± 1.2%; remaining activity at 5 µM (PIM1): 11.2 ± 0.2%; remaining activity at 10 µM (PIM1): 5.7 ± 0.5%
